Experimental data: the NIST ThermoML archive (doi:10.1021/je800110r)

Settings: 283.15 K, Liquid, Vibrating tube method

CCCCCCCCCC [decane]
Settings	mass density [kg/m3]
14704 kPa	747.6
14722 kPa	747.7
14741 kPa	747.7
14759 kPa	747.7
14777 kPa	747.6
14795 kPa	747.6
14826 kPa	747.7
14844 kPa	747.7
14862 kPa	747.7
14881 kPa	747.8
14903 kPa	747.7
14925 kPa	747.8
14941 kPa	747.8
14963 kPa	747.8
14979 kPa	747.8
14998 kPa	747.9
15017 kPa	748
15036 kPa	747.9
15055 kPa	747.9
15077 kPa	747.9
15100 kPa	747.8
15119 kPa	747.9
15139 kPa	747.9
15239 kPa	748
15312 kPa	748
15351 kPa	748.1
15368 kPa	748.1
15391 kPa	748.2
15415 kPa	748
15442 kPa	748.1
15466 kPa	748.3
15486 kPa	748.1
15507 kPa	748.2
15524 kPa	748.3
15545 kPa	748.3
15569 kPa	748.3
15590 kPa	748.2
15617 kPa	748.3
15645 kPa	748.4
15669 kPa	748.2
15693 kPa	748.3
15718 kPa	748.3
15743 kPa	748.2
15771 kPa	748.4
15799 kPa	748.3
15821 kPa	748.3
15850 kPa	748.3
15874 kPa	748.4
15899 kPa	748.4
15920 kPa	748.6
15949 kPa	748.5
15981 kPa	748.6
16007 kPa	748.4
16028 kPa	748.6
16083 kPa	748.6
16109 kPa	748.6
16135 kPa	748.5
16168 kPa	748.6
16191 kPa	748.6
16221 kPa	748.6
16257 kPa	748.7
16288 kPa	748.7
16310 kPa	748.7
16344 kPa	748.8
16378 kPa	748.7
16405 kPa	748.8
16433 kPa	748.8
16467 kPa	748.7
16494 kPa	748.9
16528 kPa	748.8
16560 kPa	748.9
16587 kPa	749
16619 kPa	748.8
16643 kPa	749
16667 kPa	749
16703 kPa	748.8
16739 kPa	749
16759 kPa	748.8
16796 kPa	749
16824 kPa	749
16852 kPa	749.1
16880 kPa	749
16905 kPa	748.9
16938 kPa	749.2
16967 kPa	749.2
16993 kPa	749.1
17030 kPa	749.2
17063 kPa	749.1
17088 kPa	749.1
17127 kPa	749.2
17153 kPa	749.2
17192 kPa	749.2
17213 kPa	749.3
17240 kPa	749.3
17267 kPa	749.4
17293 kPa	749.4
17316 kPa	749.4
17343 kPa	749.4
17366 kPa	749.5
17390 kPa	749.4
17422 kPa	749.4
17451 kPa	749.3
17470 kPa	749.5
17498 kPa	749.4
17521 kPa	749.4
17549 kPa	749.4
17626 kPa	749.5
17652 kPa	749.5
17711 kPa	749.6
17734 kPa	749.6
17770 kPa	749.5
17792 kPa	749.7
17815 kPa	749.7
17841 kPa	749.8
17864 kPa	749.7
17898 kPa	749.9
17925 kPa	749.6
17948 kPa	749.7
17982 kPa	749.9
18017 kPa	749.8
18044 kPa	749.8
18071 kPa	749.9
18099 kPa	749.9
18130 kPa	749.9
18154 kPa	749.9
18178 kPa	749.9
18210 kPa	750
18246 kPa	750
18305 kPa	750
18383 kPa	750
18574 kPa	750.2
18652 kPa	750.2
18691 kPa	750.2
18719 kPa	750.1
18746 kPa	750.2
18770 kPa	750.3
18793 kPa	750.3
